Here are results for 10 molecules from patent US20250215013A1, “SUBSTITUTED TRICYCLIC COMPOUNDS AS PARP INHIBITORS AND THE USE THEREOF” (IMPACT THERAPEUTICS (SHANGHAI), INC., priority 2022, published 2025).

The structures appear in SMILES notation. Where only a bound is given, the exact number is not on record here.

The test system of one experiment is MDA-MB-436 cells. In words: Growth inhibition assay against BRCA mutant human breast cancer MDA-MB-436 cell line (CCK-8). It is filed as cell-based. Conditions: Homo sapiens, MDA-MB-436, […], proliferation of MDA-MB-436 cells, 7 days.
Experiment [1] addresses recombinant poly(ADP-ribose) polymerase 2 (PARP2). In words: PARP2 chemiluminescent assay. In kind it is biochemical. The conditions noted are these: inhibition of PARP2 enzyme activity, chemiluminescence.
Experiment [2] concerns the target recombinant poly(ADP-ribose) polymerase 1 (PARP1) (Homo sapiens (Human), UniProt P09874).

recombinant poly(ADP-ribose) polymerase 1 (PARP1), sequence (P09874 whole entry): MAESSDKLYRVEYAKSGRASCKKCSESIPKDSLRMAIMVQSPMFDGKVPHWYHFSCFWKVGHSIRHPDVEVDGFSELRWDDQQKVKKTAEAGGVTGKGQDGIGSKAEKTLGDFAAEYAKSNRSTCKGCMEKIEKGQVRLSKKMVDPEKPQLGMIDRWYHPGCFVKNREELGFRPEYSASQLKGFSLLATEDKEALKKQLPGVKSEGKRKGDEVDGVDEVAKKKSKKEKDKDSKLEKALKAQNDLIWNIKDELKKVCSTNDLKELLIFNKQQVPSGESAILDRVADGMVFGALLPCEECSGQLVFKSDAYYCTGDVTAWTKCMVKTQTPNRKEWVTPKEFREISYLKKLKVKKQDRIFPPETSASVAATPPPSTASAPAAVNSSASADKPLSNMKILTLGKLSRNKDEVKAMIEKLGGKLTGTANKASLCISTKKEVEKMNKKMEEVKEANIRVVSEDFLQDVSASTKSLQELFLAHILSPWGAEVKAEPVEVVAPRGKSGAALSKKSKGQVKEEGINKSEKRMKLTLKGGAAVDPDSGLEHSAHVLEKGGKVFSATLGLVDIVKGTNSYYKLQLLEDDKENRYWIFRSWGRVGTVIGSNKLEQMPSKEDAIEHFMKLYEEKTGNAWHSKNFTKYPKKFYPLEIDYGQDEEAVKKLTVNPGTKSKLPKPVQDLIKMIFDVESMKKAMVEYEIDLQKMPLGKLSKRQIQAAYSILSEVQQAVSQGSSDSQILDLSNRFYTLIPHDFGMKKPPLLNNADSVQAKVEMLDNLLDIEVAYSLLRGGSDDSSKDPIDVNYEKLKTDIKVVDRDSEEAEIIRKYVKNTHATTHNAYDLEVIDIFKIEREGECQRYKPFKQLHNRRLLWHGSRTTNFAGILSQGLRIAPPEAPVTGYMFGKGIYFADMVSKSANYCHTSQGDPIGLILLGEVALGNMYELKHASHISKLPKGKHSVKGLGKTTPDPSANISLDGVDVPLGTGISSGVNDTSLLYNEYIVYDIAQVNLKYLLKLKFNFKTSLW

As usually defined, the IC50 is the midpoint of a concentration-inhibition curve. Regarding `CNC(=O)c1ccc(N2CCN(Cc3ccc4c(c3)[nH]c(=O)c3cn(C)cc34)CC2)c(C)n1` [Example 35, 7-((4-(2-methyl-6-(methylcarbamoyl)pyridin-3-yl)piperazin-1-yl)methyl)-2-methyl-2,5-dihydro-4H-pyrrolo[3,4-c]quinolin-4-one], the values for the IC50 (in the experiment with MDA-MB-436 cells; in experiment [1]; in experiment [2]) were 8.24 nM, 584 nM and 2.92 nM, respectively.

On to `CNC(=O)c1ccc(N2CCN(Cc3ccc4c([nH]c(=O)c5c(Cl)c(C)nn54)c3F)CC2)c(F)n1` [Example 199, 6-fluoro-7-((4-(2-fluoro-6-(methylcarbamoyl)pyridin-3-yl)piperazin-1-yl)methyl)-2-methyl-3-chloropyrazolo[1,5-a]quinoxalin-4(5H)-one], for which the half-maximal inhibitory concentration (IC50) is 1.11 nM in the experiment on MDA-MB-436 cells, 17.9 nM in experiment [1] and 0.16 nM in experiment [2].

Regarding `CNC(=O)c1ccc(N2CCN(Cc3ccc4c(c3)[nH]c(=O)c3c4ncn3C)CC2)c(C)n1` [Example 28, 7-((4-(2-methyl-6-(methylcarbamoyl)pyridin-3-yl)piperazin-1-yl)methyl)-3-methyl-3,5-dihydro-4H-imidazo[4,5-c]quinolin-4-one], the IC50 amounted to 19.4 nM in the experiment on MDA-MB-436 cells, 2060 nM in experiment [1] and 2.42 nM in experiment [2].

As for `CNC(=O)c1ccc(N2CCN(Cc3ccc4c(c3)[nH]c(=O)c3[nH]ccc34)CC2)c(C)n1` [Example 10, 7-((4-(2-methyl-6-(methylcarbamoyl)pyridin-3-yl)piperazin-1-yl)methyl)-3,5-dihydro-4H-pyrrolo[2,3-c]quinolin-4-one], the IC50 in the experiment with MDA-MB-436 cells is 15.5 nM; in experiment [1], above 10000 nM; in experiment [2], 8.24 nM.

Regarding `CNC(=O)c1ccc(N2CCN(Cc3ccc4c5c(c(=O)[nH]c4c3)CN(C)C5)CC2)c(C)n1` [Example 75, 7-((4-(6-methylcarbamoyl-2-methylpyridin-3-yl)piperazin-1-yl)methyl)-2-methyl-1,2,3,5-tetrahydro-4H-pyrrolo[3,4-c]quinolin-4-one], the IC50 in the experiment with MDA-MB-436 cells was found to be 11.1 nM; in experiment [1], 2380 nM; in experiment [2], 8.38 nM.

For the molecule `CNC(=O)c1ccc(N2CCN(Cc3ccc4c(c3)[nH]c(=O)c3ncn(C)c34)CC2)c(C)n1` [Example 26, 7-((4-(2-methyl-6-(methylcarbamoyl)pyridin-3-yl)piperazin-1-yl)methyl)-1-methyl-1,5-dihydro-4H-imidazo[4,5-c]quinolin-4-one], the figures for the IC50 (with MDA-MB-436 cells; in experiment [1]; in experiment [2]) were above 100 nM, 2420 nM and 4.43 nM, respectively.

Take `CNC(=O)c1ccc(N2CCN(Cc3ccc4c([nH]c(=O)c5occc54)c3C)CC2)c(F)n1` [Example 103, 7-((4-(2-fluoro-6-(methylcarbamoyl)pyridin-3-yl)piperazin-1-yl)methyl)-6-methylfuro[2,3-c]quinolin-4(5H)-one]: the IC50 in the experiment with MDA-MB-436 cells is 12.4 nM; in experiment [1] it was 667 nM; in experiment [2], 4.26 nM.

As to `CNC(=O)c1ccc(N2CCN(Cc3ccc4c([nH]c(=O)c5cncn54)c3F)CC2)c(F)n1` [Example 55, 7-((4-(2-fluoro-6-(methylcarbamoyl)pyridin-3-yl)piperazin-1-yl)methyl)-6-fluoroimidazo[1,5-a]quinoxalin-4(5H)-one], the IC50 with MDA-MB-436 cells turned out to be 14 nM; in experiment [1], 776 nM; in experiment [2] it was 0.47 nM.

With `CNC(=O)c1ccc(N2CCN(Cc3ccc4c(c3)[nH]c(=O)c3nn(C)cc34)CC2)c(C)n1` [Example 69, 7-((4-(2-methyl-6-(methylcarbamoyl)pyridin-3-yl)piperazin-1-yl)methyl)-2-methyl-2,5-dihydro-4H-pyrazolo[3,4-c]quinolin-4-one], the IC50 turned out to be 4.66 nM in the experiment on MDA-MB-436 cells, 5780 nM in experiment [1] and 0.77 nM in experiment [2].

For `CNC(=O)c1ccc(N2CCN(Cc3ccc4c(c3)[nH]c(=O)c3c(F)c(C)nn34)CC2)c(C)n1` [Example 51, 7-((4-(2-methyl-6-(methylcarbamoyl)pyridin-3-yl)piperazin-1-yl)methyl)-3-fluoro-2-methylpyrazolo[1,5-a]quinoxalin-4(5H)-one], the IC50 in the experiment with MDA-MB-436 cells was found to be 8.45 nM; in experiment [1], 30.6 nM; in experiment [2] it was 0.9 nM.
